Legend:
[1] = tested on: purified sucrose-synthase from rice; assay: Substrate spectrum for the synthesis of disaccharides: variation of the acceptor, reacted with UDP-glucose; assay type: biochemical; conditions: for Relative Activity %: acceptor substrates reacted with UDP-glucose, D-fructose = 100
Procedure: 12. Substrate Spectrum of the Saccharose-synthase from rice for the synthesis of Disaccharides.
B: Variation of the Acceptor.
For the synthesis reaction, the acceptor was varied. Apart from the natural acceptor, other diastereomers of D-fructose, like D-psicose, D-tagatose, D-sorbose were introduced. Further, several keytoses were systematically tested. Apart from Aldoses, nonsugar acceptors were also tested.

[2] = tested on: purified sucrose-synthase from rice; assay: Substrate spectrum of the sucrose-synthase for the splitting reaction (saccharide + UDP); assay type: biochemical; conditions: for replacement of saccharose in the splitting reaction (in words): Table 3; for Relative Activity %: substrate splitting with UDP, 2 mM UDP, saccharide 75 to 500 mM, 3 h at 30° C., pH 7.2, Saccharose = 100
Procedure: 11. Substrate Spectrum of the Sucrose-Synthase for the splitting reaction (I)
For the splitting reaction of the sucrose-synthase, sucrose was replaced by other disaccharide or trisaccharide:
α-Glc 1-2 β-Fruc+UDP (TDP) UDP-Glc (TDP-Glc)
The concentration of the saccharide amounted to 75 to 500 mM in the reaction composition. 2 mM UDP or TDP and as a rule 10 to 80 mU enzyme were introduced. After 3 h at 30° C. and pH 7.2 (200 mM Hepes-NaOH), the reaction was stopped at 95° C. 5 min. The formation of nucleotide sugars was followed with HPLC and compared with a control (without enzyme).

[3] = tested on: purified Sucrose-synthase; assay: Substrate spectrum of the nucleosidediphosphate; assay type: biochemical, rice; conditions: pH 7.2, 30° C., FIG. 2
Procedure: 1. Substrate spectrum of the nucleosidediphosphate.
UDP, TDP, CDP, ADP and GDP were investigated. The reaction compositions contained:
100 μl Nucleosidediphosphate (15-90 mM)
100 μl purified Sucrose-synthase (21.1 mU/ml)
The reaction composition was incubated at 30° C. and stopped at different times (5 min. at 95° C.). After filtration of the sample through a 0.22 μm filter, the resulting nucleotide sugar was analyzed by means of ionpair HPLC.

[4] = tested on: rice enzyme (sucrose-synthase); assay: Kinetics (Vmax, Km) of the splitting reaction; assay type: biochemical; conditions: sucrose 500 mM; for Km: UDP or TDP varied 0 to 10 mM, 1 h at 30° C., pH 6.5
Procedure: […] All reaction mixtures were incubated for 1 h at 30° C. and pH 6.5 (Hepes-NaOH 200 mM). The samples were treated as described above and analyzed with HPLC. […] The substrate excess inhibition can be countered by higher enzyme quantities.

[5] = tested on: purified saccharose synthase from rice; assay: Substrate spectrum for the synthesis of disaccharides: variation of the nucleotide sugar, fructose as acceptor; assay type: biochemical; conditions: for reaction of UDP-sugar with the rice enzyme (in words): Table 4; for Relative Activity %: UDP-sugars with fructose as acceptor, 2 hours at 30° C., pH 7.5, UDP-glucose = 100
Procedure: A: Variation of the Nucleotide Sugar.
For the synthesis reaction the nucleotide sugars were varied:
The composition contained:
The composition was incubated for 2 hours at 30° C. and stopped for 5 minutes at 95° C. With HPLC, with comparison with a control (without enzyme) the development of UDP was followed.

saccharose synthase = assay: Dependence on divalent metal ions; assay type: biochemical, rice; conditions: 1 mM of metal ions
From the text: 9. Dependence on Divalent Metal Ions

OC[C@H]1O[C@@H](O[C@@H]2[C@@H](CO)OC(O)(CO)[C@H]2O)[C@H](O)[C@@H](O)[C@H]1O (mixture of isomers) [Lactulose]
acceptor of sucrose-synthase (in words) [1]: can also serve as acceptors | Relative Activity % [1]: 12.3%

OC[C@H]1O[C@H](OC[C@H]2O[C@H](O[C@]3(CO)O[C@H](CO)[C@@H](O)[C@@H]3O)[C@H](O)[C@@H](O)[C@@H]2O)[C@H](O)[C@@H](O)[C@H]1O [Raffinose]
acceptor of sucrose-synthase (in words) [1]: can also serve as acceptors | Relative Activity % [1]: 8.4% | replacement of saccharose in the splitting reaction (in words) [2]: can replace the saccharose | Relative Activity % [2]: 3.8%

Cc1cn([C@H]2C[C@H](O)[C@@H](COP(=O)(O)OP(=O)(O)O)O2)c(=O)[nH]c1=O [TDP]
acceptance of the nucleosidediphosphate (rate of NDP-glucose formation) [3]: accepted in the sequence UDP, TDP, ADP, CDP and GDP | Km [4]: 650 µM

O=c1ccn([C@@H]2O[C@H](COP(=O)(O)OP(=O)(O)O[C@H]3OC[C@@H](O)[C@H](O)[C@H]3O)[C@@H](O)[C@H]2O)c(=O)[nH]1 [UDP-xylose]
reaction of UDP-sugar with the rice enzyme (in words) [5]: can be reacted with the rice enzyme | Relative Activity % [5]: 1.7%

O[C@@H]1[C@@H](O)[C@@H]2OC[C@@H](O2)[C@H]1O [1,6-Anhydroglucose]
acceptor of sucrose-synthase (in words) [1]: acceptors | Relative Activity % [1]: 9.1%

[Cu+2] [Cu^2+]
influence of metal ions on the enzyme activity (saccharose synthase): completely inactivated

O=C(CO)[C@@H](O)[C@H](O)[C@H](O)CO [D-fructose]
Relative Activity % [1]: 100%

[Mg+2] [Mg^2+]
influence of metal ions on the enzyme activity (saccharose synthase): influenced only slightly

CC(C)[C@@H](O)[C@H](O)C(=O)CO [5,6-dideoxy-5-methyl-D-fructose]
Relative Activity % [1]: 19.0%

CN1[C@@H]2CC[C@H]1C[C@@H](O)C2 [Tropin]
Relative Activity % [1]: 10.3%

CC(=O)N[C@H]1[C@@H](OP(=O)(O)OP(=O)(O)OC[C@H]2O[C@@H](n3ccc(=O)[nH]c3=O)[C@H](O)[C@@H]2O)O[C@H](CO)[C@@H](O)[C@@H]1O [UDP-N-acetylglucosamine]
reaction of UDP-sugar with the rice enzyme (in words) [5]: can be reacted with the rice enzyme | Relative Activity % [5]: 1.8%

OC[C@H]1O[C@H](OC[C@H]2OC(O)(CO)[C@@H](O)[C@@H]2O)[C@H](O)[C@@H](O)[C@@H]1O (some centres unmarked) [Isomaltulose]
Relative Activity % [1]: 3.1% | replacement of saccharose in the splitting reaction (in words) [2]: can replace the saccharose | Relative Activity % [2]: 1.0%

Nc1nc2c(ncn2[C@@H]2O[C@H](COP(=O)(O)OP(=O)(O)O)[C@@H](O)[C@H]2O)c(=O)[nH]1 [GDP]
acceptance of the nucleosidediphosphate (rate of NDP-glucose formation) [3]: accepted in the sequence UDP, TDP, ADP, CDP and GDP

Nc1ccn([C@@H]2O[C@H](COP(=O)(O)OP(=O)(O)O)[C@@H](O)[C@H]2O)c(=O)n1 [CDP]
acceptance of the nucleosidediphosphate (rate of NDP-glucose formation) [3]: accepted in the sequence UDP, TDP, ADP, CDP and GDP

[Fe+2] [Fe^2+]
influence of metal ions on the enzyme activity (saccharose synthase): completely inactivated

Nc1ncnc2c1ncn2[C@@H]1O[C@H](COP(=O)(O)OP(=O)(O)O)[C@@H](O)[C@H]1O [ADP]
acceptance of the nucleosidediphosphate (rate of NDP-glucose formation) [3]: accepted in the sequence UDP, TDP, ADP, CDP and GDP

OC[C@@]12OC[C@@H](O1)[C@@H](O)[C@@H](O)[C@@H]2O [Sedoheptulose Anhydride]
Relative Activity % [1]: 1.1%

OCC(O)CN1CCCC1 (centres unmarked) [3-pyrrolidino-1,2-propandiol]
Relative Activity % [1]: 9.6%

O=C(CO)[C@H](O)[C@H](O)[C@H](O)CO [D-psicose]
Relative Activity % [1]: 14.1%

O=C[C@H](O)[C@@H](O)[C@@H](O)CO [L-arabinose]
acceptor of sucrose-synthase (in words) [1]: acceptors | Relative Activity % [1]: 3.2%

O=C(CO)[C@@H](O[C@H]1O[C@H](CO)[C@@H](O)[C@H](O)[C@H]1O)[C@H](O)[C@H](O)CO [Turanose]
Relative Activity % [1]: 0.5%

O=C[C@@H](O)[C@@H](O)[C@H](O)[C@H](O)CO [D-mannose]
acceptor of sucrose-synthase (in words) [1]: acceptors | Relative Activity % [1]: 3.9%

O=c1ccn([C@@H]2O[C@H](COP(=O)(O)OP(=O)(O)O)[C@@H](O)[C@H]2O)c(=O)[nH]1 [UDP]
acceptance of the nucleosidediphosphate (rate of NDP-glucose formation) [3]: accepted in the sequence UDP, TDP, ADP, CDP and GDP | Km [4]: 400 µM | Ki ([4]; with 0.9 mU enzyme, pH 6.5, 30° C., read-out: substrate excess inhibition Ki(S)): 16 mM

OC[C@H]1O[C@@](CO)(O[C@H]2O[C@H](CO)[C@@H](O)[C@H](O)[C@H]2O)[C@@H](O)[C@@H]1O [Saccharose]
Relative Activity % [2]: 100%

CC1(C)S[C@@H]2[C@H](NC(=O)[C@H](N)c3ccccc3)C(=O)N2[C@H]1C(=O)O [Ampicillin, reference compound]
Relative Activity % [2]: 2.4%

O=C(CO)[C@@H](O)[C@H](O)[C@@H](O)CO [L-sorbose]
acceptor of sucrose-synthase (in words) [1]: acceptors | Relative Activity % [1]: 6.0%

OC1CCNC1 (centres unmarked) [3-hydroxypyrrolidine]
Relative Activity % [1]: 6.3%

O=C[C@@H](O)[C@@H](O)[C@H](O)CO [D-lyxose]
acceptor of sucrose-synthase (in words) [1]: acceptors | Relative Activity % [1]: 14.7%

O=C(CO)[C@@H](O)[C@H](O)CO [D-xylulose]
acceptor of sucrose-synthase (in words) [1]: acceptors | Relative Activity % [1]: 40.7%

[Ca+2] [Ca^2+]
influence of metal ions on the enzyme activity, TDP as the substrate (saccharose synthase): stimulation of the enzyme activity

OCCN1CCCCC1
Relative Activity % [1]: 9.4%

OC[C@H]1O[C@@](CO)(O[C@@H]2C[C@@H](O)[C@H](O)[C@@H](CO)O2)[C@@H](O)[C@@H]1O [2-deoxy-saccharose]
Relative Activity % [2]: 55%

CCCCCCCCO[C@@H]1O[C@H](CO)[C@@H](O)[C@H](O)[C@H]1O [Octyl-β-D-glucopyranoside]
acceptor of sucrose-synthase (in words) [1]: acceptors | Relative Activity % [1]: 0.5%

CC[C@@H](O)[C@H](O)C(=O)CO [5,6-dideoxy-D-fructose]
Relative Activity % [1]: 7.6%

C[C@H](O)[C@@H](O)[C@H](O)C(=O)CO [6-desoxy-L-sorbase]
Relative Activity % [1]: 8.8%

CCN1CCC(O)C1 (centres unmarked) [1-ethyl-3-hydroxy-pyrrolidine]
Relative Activity % [1]: 10.4%

O=C(CO)[C@@H](O)[C@@H](O)[C@H](O)CO [D-tagatose]
Relative Activity % [1]: 28.3%

OC[C@H]1O[C@@](CO)(O[C@H]2O[C@H](CO)[C@@H](O)[C@H](O)[C@H]2O)[C@@H](O[C@H]2O[C@H](CO)[C@@H](O)[C@H](O)[C@H]2O)[C@@H]1O [Melizitose]
Relative Activity % [1]: 0.6% | replacement of saccharose in the splitting reaction (in words) [2]: can replace the saccharose | Relative Activity % [2]: 0.4%

CN1CCC(O)C1 (centres unmarked) [3-hydroxy-N-methyl-pyrrolidine]
Relative Activity % [1]: 1.9%

[Mn+2] [Mn^2+]
influence of metal ions on the enzyme activity (saccharose synthase): influenced only slightly | influence of metal ions on the enzyme activity, TDP as the substrate (saccharose synthase): stimulation of the enzyme activity

CC(=O)[C@@H](O)[C@H](O)C(=O)CO [5-keto-6-deoxy-D-fructose]
Relative Activity % [1]: 25.1%

From US5750389A, “Purified saccharose-synthase, process for its production and its use” (Forschungszentrum Julich GmbH, priority 1992, dated 1998)
